Assay results taken from article PMC11589570, “Critical assessment of LC3/GABARAP ligands used for degrader development and ligandability of LC3/GABARAP binding pockets” (Nature Communications, 2024).
Several values for one entry are separate records, joined by “and”; a condition that tells them apart may be missing. Equal values may be shown once.

What was measured:
[1] = molecular target: T1, LC3A (Homo sapiens, UniProt Q9H492); experiment: FP assay with 10O5- and 8F20-based dye-linked tracers 16 and 17; details: LC3A; compound 3 for tracer 17, compound 4 for tracer 16
[2] = tested on: live cells of the growth assay; experiment: Analysis of images of the live cell growth assay (cell morphology); assay type: cell-based; details: consistent with G2/M arrest
[3] = molecular target: LC3B (Homo sapiens, UniProt Q9GZQ8); experiment: FP assay with 10O5- and 8F20-based dye-linked tracers 16 and 17; details: LC3B; compound 3 for tracer 17, compound 4 for tracer 16
[4] = molecular target: T1, LC3A; experiment: Spectral shift assay (Dianthus), cysteine-labelled protein; assay type: binding; details: Repeat 1 and Repeat 2
Protocol: Affinity determination using spectral shift mode on Dianthus: To determine dissociation constants, the Dianthus instrument (NanoTemper Technologies GmbH, Germany) was used to monitor molecular interactions. […] Protein was labelled with RED-maleimide 2nd Generation (cat# MO-L014; NanoTemper Technologies GmbH). Labeling was carried out following the manufacturer protocol, using a 3:1 ratio dye:protein. […] Protein was purified in 30 mM HEPES, 100 mM NaCl, 0.05% Tween, pH 7.5. […] Measurements were performed in spectral shift mode with an LED excitation power of 100%. Data were analyzed using the DI.Screening Analysis Software (v.2.0.4) (NanoTemper Technologies GmbH, Germany) and quality criteria values including Δ Ratio, Signal-to-Noise-Ratio, Fit Saturation and KD values were determined.

[5] = tested on: LC3/GABARAPs (human Atg8 family); experiment: FP assay with Cy5-labelled p62 LIR tracer, statements on all LC3/GABARAPs; assay type: binding

For `Cc1ccc(C(=O)N(CCCN)[C@@H](c2nc3cc(Cl)ccc3c(=O)n2Cc2ccccc2)C(C)C)cc1` [compound 3, (R)-N-(3-aminopropyl)-N-(1-(3-benzyl-7-chloro-4-oxo-3,4-dihydroquinazolin-2-yl)−2-methylpropyl)−4-methylbenzamide], which “displacement of dye-linked tracer by parent compound” value (from here on “displacement of dye-linked tracer”) [1] is on record?
The value was “no displacement”.

What about the “cell morphology in live cell images” value [2] of the same compound?
The value was “increased number of rounded cells”.

And the “displacement of dye-linked tracer” value [3]?
The value was “no displacement”.

And the “Initial Fluorescence” value ([4]; compound 15.2588 nM titrated against LC3A, listed as 8F20 (3))?
Its value is 10115.139 and 10590.376.

What about the “Initial Fluorescence” value ([4]; compound 30.5176 nM titrated against LC3A, listed as 8F20 (3)) of the same compound?
Its value is 10801.294 and 10751.715.

And the “Initial Fluorescence” value ([4]; compound 61.0352 nM titrated against LC3A, listed as 8F20 (3))?
Its value is 10969.053 and 11514.474.

And the “Initial Fluorescence” value ([4]; compound 122.07 nM titrated against LC3A, listed as 8F20 (3))?
Its value is 10805.714 and 11350.170.

And the “Initial Fluorescence” value ([4]; compound 244.141 nM titrated against LC3A, listed as 8F20 (3))?
The value was 12437.260 and 12829.142.

And the “Initial Fluorescence” value ([4]; compound 488.281 nM titrated against LC3A, listed as 8F20 (3))?
Its value is 11460.432 and 11424.556.

What about the “Initial Fluorescence” value ([4]; compound 976.562 nM titrated against LC3A, listed as 8F20 (3)) of the same compound?
The value was 11304.154 and 11789.590.

What about the “Initial Fluorescence” value ([4]; compound 1953.12 nM titrated against LC3A, listed as 8F20 (3)) of the same compound?
The value was 11136.164 and 11540.347.

What about the “Initial Fluorescence” value ([4]; compound 3906.25 nM titrated against LC3A, listed as 8F20 (3)) of the same compound?
Its value is 11540.226 and 11678.705.

And the “Initial Fluorescence” value ([4]; compound 7812.5 nM titrated against LC3A, listed as 8F20 (3))?
Its value is 12368.631 and 13118.831.

And the “Initial Fluorescence” value ([4]; compound 15625 nM titrated against LC3A, listed as 8F20 (3))?
The value was 13549.037 and 11303.453.

What about the “Initial Fluorescence” value ([4]; compound 31250 nM titrated against LC3A, listed as 8F20 (3)) of the same compound?
Its value is 12093.613 and 11816.274.

What about the “Initial Fluorescence” value ([4]; compound 62500 nM titrated against LC3A, listed as 8F20 (3)) of the same compound?
Its value is 12824.797 and 12883.571.

What about the “Initial Fluorescence” value ([4]; compound 125000 nM titrated against LC3A, listed as 8F20 (3)) of the same compound?
Its value is 12380.010 and 12980.949.

What about the “Initial Fluorescence” value ([4]; compound 250000 nM titrated against LC3A, listed as 8F20 (3)) of the same compound?
The value was 12405.646 and 13536.280.

For `O=C1Nc2ccc(I)cc2C1=Cc1cc(Br)c(O)c(Br)c1` [compound 4], which “displacement of dye-linked tracer” value [1] is on record?
Its value is “no displacement”.

What about the “interaction with LC3/GABARAP family members in FP displacement assay” value [5] of the same compound?
The value was “weak interaction of 10O5 (4) with GABARAP family members”.

What about the “displacement of dye-linked tracer” value [3] of the same compound?
The value was “no displacement”.

And the “Initial Fluorescence” value ([4]; compound 15.2588 nM titrated against LC3A, listed as 10O5 (4))?
Its value is 5485.239 and 8498.012.

And the “Initial Fluorescence” value ([4]; compound 30.5176 nM titrated against LC3A, listed as 10O5 (4))?
Its value is 4967.649 and 8590.938.

And the “Initial Fluorescence” value ([4]; compound 61.0352 nM titrated against LC3A, listed as 10O5 (4))?
The value was 3893.892 and 7432.185.

And the “Initial Fluorescence” value ([4]; compound 122.07 nM titrated against LC3A, listed as 10O5 (4))?
The value was 3715.765 and 5942.313.

And the “Initial Fluorescence” value ([4]; compound 244.141 nM titrated against LC3A, listed as 10O5 (4))?
Its value is 3805.917 and 4785.866.

What about the “Initial Fluorescence” value ([4]; compound 488.281 nM titrated against LC3A, listed as 10O5 (4)) of the same compound?
The value was 2784.925 and 3093.111.

What about the “Initial Fluorescence” value ([4]; compound 976.562 nM titrated against LC3A, listed as 10O5 (4)) of the same compound?
The value was 3008.559 and 2759.079.

And the “Initial Fluorescence” value ([4]; compound 1953.12 nM titrated against LC3A, listed as 10O5 (4))?
The value was 2614.532 and 2461.361.

What about the “Initial Fluorescence” value ([4]; compound 3906.25 nM titrated against LC3A, listed as 10O5 (4)) of the same compound?
Its value is 2609.726 and 2127.302.

And the “Initial Fluorescence” value ([4]; compound 7812.5 nM titrated against LC3A, listed as 10O5 (4))?
The value was 2627.775 and 2205.232.

What about the “Initial Fluorescence” value ([4]; compound 15625 nM titrated against LC3A, listed as 10O5 (4)) of the same compound?
The value was 2084.943 and 1892.122.

What about the “Initial Fluorescence” value ([4]; compound 31250 nM titrated against LC3A, listed as 10O5 (4)) of the same compound?
The value was 1913.624 and 1771.147.

What about the “Initial Fluorescence” value ([4]; compound 62500 nM titrated against LC3A, listed as 10O5 (4)) of the same compound?
The value was 1934.175 and 2136.348.

What about the “Initial Fluorescence” value ([4]; compound 125000 nM titrated against LC3A, listed as 10O5 (4)) of the same compound?
The value was 2010.201 and 1874.865.

And the “Initial Fluorescence” value ([4]; compound 250000 nM titrated against LC3A, listed as 10O5 (4))?
The value was 1863.832 and 1842.946.

And the “Initial Fluorescence” value ([4]; compound 500000 nM titrated against LC3A, listed as 10O5 (4))?
Its value is 1618.141 and 1654.997.
